Measurements published in patent US9765018B2, “IDO inhibitors” (BRISTOL-MYERS SQUIBB COMPANY, priority 2013, dated 2017).

Experiments:
IDO [1] = biological target: T1, IDO (Homo sapiens (Human), UniProt P14902); experiment: LLE_IDO_ABS_DR (IDO assay, method not described)
IDO [2] = biological target: T1, IDO; experiment: Kynurenine assay in IFN-γ-stimulated Hela cells; assay type: cell-based; conditions: 20 h, read-out: Hela Kyurenine (IC50)
In short: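 Kynurenine in supernatant is read at 490 nm after Ehrlich reagent (10 min RT), following TCA stop and 30 min at 50° C hydrolysis. Before that, Hela cells in phenol red-free RPMI/10% FBS were co-treated 20 h at 37° C with 100 ng/mL IFN-γ and compound (30 μM top, 3-fold series to 1.5 nM).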

T1 sequence (P14902 whole entry): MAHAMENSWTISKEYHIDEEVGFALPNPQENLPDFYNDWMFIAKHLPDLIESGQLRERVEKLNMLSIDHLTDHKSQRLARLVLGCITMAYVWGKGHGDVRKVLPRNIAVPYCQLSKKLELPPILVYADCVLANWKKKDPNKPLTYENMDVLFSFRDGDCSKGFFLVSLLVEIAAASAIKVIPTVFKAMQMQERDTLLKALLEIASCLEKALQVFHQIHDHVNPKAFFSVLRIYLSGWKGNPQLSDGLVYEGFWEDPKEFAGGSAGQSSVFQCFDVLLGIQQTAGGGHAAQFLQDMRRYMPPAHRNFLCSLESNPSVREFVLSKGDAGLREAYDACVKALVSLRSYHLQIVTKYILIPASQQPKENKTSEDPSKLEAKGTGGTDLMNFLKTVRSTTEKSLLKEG

Row | Compound | IC50 (IDO [1]) | IC50 (IDO [2])
1 | COc1ccc(-c2ccc(Oc3ccccc3C(C)C)c(NC(=O)Nc3ccccc3Cl)c2)cc1C(=O)O [Example 62, 3′-(3-(2-chlorophenyl)ureido)-4′-(2-isopropylphenoxy)-4-methoxybiphenyl-3-carboxylic acid] | 0.53 µM | 0.14 µM
2 | COc1ccc(-c2ccc(Oc3ccccc3C(C)C)c(NC(=O)Nc3ccccc3C)c2)cc1C(=O)O [Example 64, 4′-(2-isopropylphenoxy)-4-methoxy-3′-(3-o-tolylureido)biphenyl-3-carboxylic acid] | 0.64 µM | 0.18 µM
3 | COc1ccc(-c2ccc(Oc3ccccc3C(C)C)c(NC(=O)Nc3cccc(C)c3)c2)cc1C(=O)O [Example 65, 4′-(2-isopropylphenoxy)-4-methoxy-3′-(3-m-tolylureido)biphenyl-3-carboxylic acid] | 0.63 µM | 0.2 µM
4 | COc1ccc(-c2ccc(Oc3ccccc3C(C)(C)C)c(NC(=O)Nc3ccc(OC(F)(F)F)cc3)c2)cc1C(=O)O [Example 66, 4′-(2-tert-butylphenoxy)-4-methoxy-3′-(3-(4-(trifluoromethoxy)phenyl)ureido)biphenyl-3-carboxylic acid] | 1.59 µM | 0.82 µM
5 | CCCc1ccccc1Oc1ccc(-c2ccc(OC)c(C(=O)O)c2)cc1NC(=O)Nc1ccccc1Cl [Example 74, 3′-(3-(2-chlorophenyl)ureido)-4-methoxy-4′-(2-propylphenoxy)biphenyl-3-carboxylic acid] | 0.52 µM | 0.4 µM
6 | CCCc1ccccc1Oc1ccc(-c2ccc(OC)c(C(=O)O)c2)cc1NC(=O)Nc1ccccc1C [Example 75, 4-methoxy-4′-(2-propylphenoxy)-3′-(3-o-tolylureido)biphenyl-3-carboxylic acid] | 0.55 µM | 0.37 µM
7 | CCCc1ccccc1Oc1ccc(-c2ccc(OC)c(C(=O)O)c2)cc1NC(=O)Nc1cccc(C)c1 [Example 76, 4-methoxy-4′-(2-propylphenoxy)-3′-(3-m-tolylureido)biphenyl-3-carboxylic acid] | 2.04 µM | 0.6 µM
8 | COc1ccc(-c2ccc(Oc3ccccc3C(C)(C)C)c(NC(=O)Nc3cccc(Cl)c3Cl)c2)cc1C(=O)O [Example 81, 4′-(2-(tert-butyl)phenoxy)-3′-(3-(2,3-dichlorophenyl)ureido)-4-methoxy-[1,1′-biphenyl]-3-carboxylic acid] | 0.32 µM | 0.13 µM
9 | COc1ccccc1NC(=O)Nc1cc(-c2ccc(OC)c(C(=O)O)c2)ccc1Oc1ccccc1C(C)(C)C [Example 83, 4′-(2-(tert-butyl)phenoxy)-4-methoxy-3′-(3-(2-methoxyphenyl)ureido)-[1,1′-biphenyl]-3-carboxylic acid] | 1.19 µM | 0.21 µM
10 | COc1ccc(-c2ccc(Oc3ccccc3C(C)(C)C)c(NC(=O)Nc3ccc(C)cc3C)c2)cc1C(=O)O [Example 94, 4′-(2-(tert-butyl)phenoxy)-3′-(3-(2,4-dimethylphenyl)ureido)-4-methoxy-[1,1′-biphenyl]-3-carboxylic acid] | 3.06 µM | 0.17 µM
11 | COc1ccc(-c2ccc(Oc3cccc(C(C)(C)C)c3)c(NC(=O)Nc3ccccc3Cl)c2)cc1C(=O)O [Example 110, 4′-(3-tert-butylphenoxy)-3′-(3-(2-chlorophenyl)ureido)-4-methoxybiphenyl-3-carboxylic acid] | 2.05 µM | 0.13 µM
12 | COc1ccc(-c2ccc(Oc3cccc(C(C)(C)C)c3)c(NC(=O)Nc3ccccc3C)c2)cc1C(=O)O [Example 111, 4′-(3-tert-butylphenoxy)-4-methoxy-3′-(3-o-tolylureido)biphenyl-3-carboxylic acid] | 0.43 µM | 0.18 µM
13 | COc1ccc(-c2ccc(Oc3cccc(C(C)(C)C)c3)c(NC(=O)Nc3cccc(C)c3)c2)cc1C(=O)O [Example 112, 4′-(3-tert-butylphenoxy)-4-methoxy-3′-(3-m-tolylureido)biphenyl-3-carboxylic acid] | 1.05 µM | 0.37 µM
14 | CCCNC(=O)Nc1cc(-c2ccc(OC)c(C(=O)O)c2)ccc1Oc1cccc2c1CCCC2 [Example 118, 4-methoxy-3′-(3-propylureido)-4′-(5,6,7,8-tetrahydronaphthalen-1-yloxy)biphenyl-3-carboxylic acid] | 1.06 µM | 0.92 µM
15 | COc1ccc(-c2ccc(Oc3cccc(C)c3C)c(NC(=O)Nc3ccccc3C)c2)cc1C(=O)O [Example 121, 4′-(2,3-dimethylphenoxy)-4-methoxy-3′-(3-o-tolylureido)biphenyl-3-carboxylic acid] | 0.39 µM | 0.11 µM
16 | COc1ccc(-c2ccc(Oc3ccccc3C3CC3)c(NC(=O)Nc3ccccc3Cl)c2)cc1C(=O)O [Example 124, 3′-(3-(2-chlorophenyl)ureido)-4′-(2-cyclopropylphenoxy)-4-methoxybiphenyl-3-carboxylic acid] | 0.82 µM | 0.14 µM

Row | Compound | IC50 (IDO [1]) | IC50 (IDO [2])
17 | COc1ccc(-c2ccc(Oc3ccccc3C3CC3)c(NC(=O)Nc3ccccc3C)c2)cc1C(=O)O [Example 125, 4′-(2-cyclopropylphenoxy)-4-methoxy-3′-(3-o-tolylureido)biphenyl-3-carboxylic acid] | 0.73 µM | 0.17 µM
18 | COc1ccc(-c2ccc(Oc3ccccc3C3CC3)c(NC(=O)Nc3cccc(C)c3)c2)cc1C(=O)O [Example 126, 4′-(2-cyclopropylphenoxy)-4-methoxy-3′-(3-m-tolylureido)biphenyl-3-carboxylic acid] | 0.76 µM | 0.19 µM
19 | COc1ccc(-c2ccc(Oc3cccc4ccccc34)c(NC(=O)Nc3ccccc3Cl)c2)cc1C(=O)O [Example 128, 3′-(3-(2-chlorophenyl)ureido)-4-methoxy-4′-(naphthalen-1-yloxy)biphenyl-3-carboxylic acid] | 0.25 µM | 0.04 µM
20 | COc1ccc(-c2ccc(Oc3cccc4ccccc34)c(NC(=O)Nc3cccc(C)c3)c2)cc1C(=O)O [Example 130, 4-methoxy-4′-(naphthalen-1-yloxy)-3′-(3-m-tolylureido)biphenyl-3-carboxylic acid] | 0.48 µM | 0.12 µM
21 | COc1ccc(-c2ccc(Oc3cccc4c3OC(C)(C)C4)c(NC(=O)Nc3ccccc3Cl)c2)cc1C(=O)O [Example 133, 3′-(3-(2-chlorophenyl)ureido)-4′-(2,2-dimethyl-2,3-dihydrobenzofuran-7-yloxy)-4-methoxybiphenyl-3-carboxylic acid] | 1.83 µM | 0.59 µM
22 | COc1ccc(-c2ccc(Oc3cccc4c3OC(C)(C)C4)c(NC(=O)Nc3ccccc3C)c2)cc1C(=O)O [Example 139, 4′-(2,2-dimethyl-2,3-dihydrobenzofuran-7-yloxy)-4-methoxy-3′-(3-o-tolylureido)biphenyl-3-carboxylic acid] | 2.64 µM | 0.68 µM
23 | COc1ccc(-c2ccc(Oc3cccc4c3OC(C)(C)C4)c(NC(=O)Nc3cccc(C)c3)c2)cc1C(=O)O [Example 140, 4′-(2,2-dimethyl-2,3-dihydrobenzofuran-7-yloxy)-4-methoxy-3′-(3-m-tolylureido)biphenyl-3-carboxylic acid] | 3.85 µM | 0.97 µM
24 | COc1ccc(-c2ccc(Oc3cccc4c3CCC4)c(NC(=O)Nc3cccc(C)c3)c2)cc1C(=O)O [Example 144, 4′-(2,3-dihydro-1H-inden-4-yloxy)-4-methoxy-3′-(3-m-tolylureido)biphenyl-3-carboxylic acid] | 0.51 µM | 0.15 µM
25 | COc1ccc(-c2ccc(Oc3ccc4c(c3)CCCC4)c(NC(=O)Nc3ccccc3C)c2)cc1C(=O)O [Example 146, 4-methoxy-4′-(5,6,7,8-tetrahydronaphthalen-2-yloxy)-3′-(3-o-tolylureido)biphenyl-3-carboxylic acid] | 0.58 µM | 0.27 µM
26 | COc1ccc(-c2ccc(Oc3ccc4c(c3)CCCC4)c(NC(=O)Nc3cccc(C)c3)c2)cc1C(=O)O [Example 147, 4-methoxy-4′-(5,6,7,8-tetrahydronaphthalen-2-yloxy)-3′-(3-m-tolylureido)biphenyl-3-carboxylic acid] | 1.32 µM | 0.46 µM
27 | COc1ccc(-c2ccc(Oc3cccc4c3CCCC4=O)c(NC(=O)Nc3ccccc3Cl)c2)cc1C(=O)O [Example 149, 3′-(3-(2-chlorophenyl)ureido)-4-methoxy-4′-(5-oxo-5,6,7,8-tetrahydronaphthalen-1-yloxy)biphenyl-3-carboxylic acid] | 2.05 µM | 0.53 µM
28 | COc1ccc(-c2ccc(Oc3cccc4c3CCCC4=O)c(NC(=O)Nc3ccccc3C)c2)cc1C(=O)O [Example 150, 4-methoxy-4′-(5-oxo-5,6,7,8-tetrahydronaphthalen-1-yloxy)-3′-(3-o-tolylureido)biphenyl-3-carboxylic acid] | 7.19 µM | 0.71 µM
29 | COc1ccc(-c2ccc(Oc3cccc4c3CCCC4)c(NC(=O)Nc3ccc(F)cc3F)c2)cc1C(=O)O [Example 154, 3′-(3-(2,4-difluorophenyl)ureido)-4-methoxy-4′-(5,6,7,8-tetrahydronaphthalen-1-yloxy)biphenyl-3-carboxylic acid] | 0.54 µM | 0.14 µM
30 | Cc1ccccc1NC(=O)Nc1cc(-c2ccccc2C(=O)O)ccc1Oc1ccccc1C(C)(C)C [Example 156, 4′-(2-tert-butylphenoxy)-3′-(3-o-tolylureido)biphenyl-2-carboxylic acid] | 0.68 µM | 0.64 µM
31 | Cc1cccc(NC(=O)Nc2cc(-c3ccccc3C(=O)O)ccc2Oc2ccccc2C(C)(C)C)c1 [Example 157, 4′-(2-tert-butylphenoxy)-3′-(3-m-tolylureido)biphenyl-2-carboxylic acid] | 3.68 µM | 2.12 µM
32 | CC(C)(C)c1ccccc1Oc1ccc(-c2ccc(Cl)cc2C(=O)O)cc1NC(=O)Nc1ccccc1Cl [Example 158, 4′-(2-tert-butylphenoxy)-4-chloro-3′-(3-(2-chlorophenyl)ureido)biphenyl-2-carboxylic acid] | 4.06 µM | 0.86 µM
